Source: patent US8227625B2, “4,5,6,7-tetrahydrobenzo[b]thiophene derivatives and their use as sigma receptor ligands” (Laboratorios del Dr. Esteve, S.A., priority 2006, dated 2012)

Legend:
[1] = target: T1, Sigma-1 receptor (Cavia porcellus, UniProt Q60492); assay: Sigma-1 receptor radioligand binding assay, [3H](+)-pentazocine, guinea pig brain membranes; details: [3H](+)-pentazocine 0.5 nM; for % Binding σ1 10^−7M: compound at 10^−7M; for % Binding σ1 10^−8M: compound at 10^−8M
T1 construct: from tissue; host or cells: guinea pig brain membranes
Experimental: Brain membrane preparation and binding assays for the al-receptor were performed as described (DeHaven-Hudkins et al., 1992) with some modifications. In brief, guinea pig brains were homogenized in 10 vols. (w/v) of Tris-HCl 50 mM 0.32 M sucrose, pH 7.4, with a Kinematica Polytron PT 3000 at 15000 r.p.m. for 30 s. The homogenate was centrifuged at 1000 g for 10 min at 4° C. and the supernatants collected and centrifuged again at 48000 g for 15 min at 4° C. The pellet was resuspended in 10 volumes of Tris-HCl buffer (50 mM, pH 7.4), incubated at 37° C. for 30 min, and centrifuged at 48000 g for 20 min at 4° C. Following this, the pellet was resuspended in fresh Tris-HCl buffer (50 mM, pH 7.4) and stored on ice until use.
Each assay tube contained 10 μL of [^3H](+)-pentazocine (final concentration of 0.5 nM), 900 μL of the tissue suspension to a final assay volume of 1 mL and a final tissue concentration of approximately 30 mg tissue net weight/mL. Non-specific binding was defined by addition of a final concentration of 1 μM haloperidol. All tubes were incubated at 37° C. for 150 min before termination of the reaction by rapid filtration over Schleicher & Schuell GF 3362 glass fibre filters [previously soaked in a solution of 0.5% polyethylenimine for at least 1 h]. Filters were then washed with four times with 4 mL of cold Tris-HCl buffer (50 mM, pH 7.4). Following addition of scintillation cocktail, the samples were allowed to equilibrate overnight. The amount of bound radioactivity was determined by liquid scintillation spectrometry using a Wallac Winspectral 1414 liquid scintillation counter. Protein concentrations were determined by the method of Lowry et al. (1951).

T1 sequence (Q60492 whole entry): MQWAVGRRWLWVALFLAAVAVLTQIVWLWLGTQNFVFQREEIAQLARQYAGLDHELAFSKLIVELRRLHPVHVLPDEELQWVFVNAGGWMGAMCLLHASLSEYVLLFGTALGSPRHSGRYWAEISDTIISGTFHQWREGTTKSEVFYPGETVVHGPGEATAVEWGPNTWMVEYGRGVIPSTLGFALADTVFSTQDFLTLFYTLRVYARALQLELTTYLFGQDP

Row | SMILES | % Binding σ1 10^−7M [1] [%] | % Binding σ1 10^−8M [1] [%] | melting point [°C]
1 | CN(C/C=C1\CCCc2sccc21)Cc1ccccc1 [Example 3, (E)-N-benzyl-2-(6,7-dihydrobenzo[b]thien-4(5H)-ylidene)-N-methylethanamine] | 70.6 | 27.3 | 
2 | C(/CN1CCC(c2ccccc2)CC1)=C1/CCCc2sccc21 [Example 5, (E)-1-(2-(6,7-dihydrobenzo[b]thien-4(5H)-ylidene)ethyl)-4-phenylpiperidine] | 84.5 | 32.8 | 
3 | CN(C/C=C1\CCCc2sccc21)CCc1ccccc1 [Example 7, (E)-N-(2-(6,7-dihydrobenzo[b]thien-4(5H)-ylidene)ethyl)-N-methyl-2-phenylethanamine] | 89.3 | 48.6 | 
4 | C(/CN1CCCCC1)=C1/CCCc2sccc21 [Example 9, (E)-1-(2-(6,7-dihydrobenzo[b]thien-4(5H)-ylidene)ethyl)piperidine] | 23 | 5 | 
5 | CC1CCN(C/C=C2\CCCc3sccc32)CC1 [Example 11, (E)-1-(2-(6,7-dihydrobenzo[b]thien-4(5H)-ylidene)ethyl)-4-methylpiperidine] | 70.9 | 18.2 | 
6 | FC(F)(F)c1cc(C2CCN(CCC3CCCc4sccc43)CC2)cc(C(F)(F)F)c1.O=C(O)C(=O)O (centres unmarked) [Example 48, 4-(3,5-bis(trifluoromethyl)phenyl)-1-(2-(4,5,6,7-tetrahydrobenzo[b]thiophen-4-yl)ethyl)piperidine oxalate] |  |  | 205 to 206
7 | CN1CCC2(CCN(CCC3CCCc4sccc43)CC2)C1=O.O=C(O)C(=O)O (centres unmarked) [Example 65, 2-Methyl-8-[2-(4,5,6,7-tetrahydrobenzo[b]thiophen-4-yl)-ethyl]-2,8-diazaspiro[4.5]decan-1-one oxalate] |  |  | 140 to 142
8 | O=C(O)C(=O)O.O=C1N(c2ccc(Cl)cc2)CCC12CCN(CCC1CCCc3sccc31)CC2 (centres unmarked) [Example 69, 2-(4-Chlorophenyl)-8-[2-(4,5,6,7-tetrahydrobenzo[b]thiophen-4-yl)-ethyl]-2,8-diazaspiro[4.5]decan-1-one oxalate] |  |  | 218 to 220
9 | O=C(O)C(=O)O.O=C1NCCC12CCN(CCC1CCCc3sccc31)CC2 (centres unmarked) [Example 71, 8-[2-(4,5,6,7-Tetrahydrobenzo[b]thiophen-4-yl)-ethyl]-2,8-diazaspiro[4.5]decan-1-one oxalate] |  |  | 147 to 149
10 | CC(C)(C)N1CCC2(CCN(CCC3CCCc4sccc43)CC2)C1=O.O=C(O)C(=O)O (centres unmarked) [Example 81, 2-tert-butyl-8-[2-(4,5,6,7-tetrahydrobenzo[b]thiophen-4-yl)-ethyl]-2,8-diazaspiro[4.5]decan-1-one oxalate] |  |  | 172 to 173
11 | O=C(O)C(=O)O.O=C1N(Cc2ccccc2)CCC12CCN(CCC1CCCc3sccc31)CC2 (centres unmarked) [Example 83, 2-benzyl-8-[2-(4,5,6,7-tetrahydrobenzo[b]thiophen-4-yl)-ethyl]-2,8-diazaspiro[4.5]decan-1-one oxalate] |  |  | 170 to 171
12 | O=C(O)C(=O)O.O=C1N(c2ccc(C(F)(F)F)cc2)CCC12CCN(CCC1CCCc3sccc31)CC2 (centres unmarked) [Example 89, 2-(4-trifluoromethylphenyl)-8-[2-(4,5,6,7-tetrahydrobenzo[b]thiophen-4-yl)-ethyl]-2,8-diazaspiro[4.5]decan-1-one oxalate] |  |  | 166 to 168
13 | O=C(O)C(=O)O.O=C1N(c2ccc(F)cc2)CCC12CCN(CCC1CCCc3sccc31)CC2 (centres unmarked) [Example 95, 2-(4-Fluorophenyl)-8-[2-(4,5,6,7-tetrahydrobenzo[b]thiophen-4-yl)-ethyl]-2,8-diazaspiro[4.5]decan-1-one oxalate] |  |  | 195 to 199

Further lines, results first:

Row | % Binding σ1 10^−7M [1] [%] | % Binding σ1 10^−8M [1] [%] | melting point [°C] | SMILES
14 |  |  | 185 to 186 | Clc1cccc(C2CCN(CCC3CCCc4sccc43)CC2)c1.O=C(O)C(=O)O (centres unmarked) [Example 42, 4-(3-chlorophenyl)-1-(2-(4,5,6,7-tetrahydrobenzo[b]thiophen-4-yl)ethyl)piperidine oxalate]
15 |  |  | 157 to 159 | COc1cccc(C2CCN(CCC3CCCc4sccc43)CC2)c1.O=C(O)C(=O)O (centres unmarked) [Example 44, 4-(3-methoxyphenyl)-1-(2-(4,5,6,7-tetrahydrobenzo[b]thiophen-4-yl)ethyl)piperidine oxalate]
16 |  |  | 179 to 181 | Fc1ccc(C2CCN(CCC3CCCc4sccc43)CC2)cc1.O=C(O)C(=O)O (centres unmarked) [Example 46, 4-(4-fluorophenyl)-1-(2-(4,5,6,7-tetrahydrobenzo[b]thiophen-4-yl)ethyl)piperidine oxalate]
17 |  |  | 203 to 205 | O=C(O)C(=O)O.c1ccc2cc(C3CCN(CCC4CCCc5sccc54)CC3)ccc2c1 (centres unmarked) [Example 50, 4-(naphthalen-2-yl)-1-(2-(4,5,6,7-tetrahydrobenzo[b]thiophen-4-yl)ethyl)piperidine oxalate]
18 |  |  | 207 to 208 | O=C(O)C(=O)O.c1ccc2oc(C3CCN(CCC4CCCc5sccc54)CC3)cc2c1 (centres unmarked) [Example 52, 4-(benzofuran-2-yl)-1-(2-(4,5,6,7-tetrahydrobenzo[b]thiophen-4-yl)ethyl)piperidine oxalate]
19 |  |  | 208 to 209 | Fc1ccccc1C1CCN(CCC2CCCc3sccc32)CC1.O=C(O)C(=O)O (centres unmarked) [Example 54, 4-(2-fluorophenyl)-1-(2-(4,5,6,7-tetrahydrobenzo[b]thiophen-4-yl)ethyl)piperidine oxalate]
20 |  |  | 190 to 192 | O=C(O)C(=O)O.c1ccc2c(C3CCN(CCC4CCCc5sccc54)CC3)csc2c1 (centres unmarked) [Example 57, 4-(benzo[b]thiophen-3-yl)-1-(2-(4,5,6,7-tetrahydrobenzo[b]thiophen-4-yl)ethyl)piperidine oxalate]
21 |  |  | 223 to 225 | O=C(O)C(=O)O.c1ccc2[nH]c(C3CCN(CCC4CCCc5sccc54)CC3)nc2c1 (centres unmarked) [Example 59, 2-(1-(2-(4,5,6,7-tetrahydrobenzo[b]thiophen-4-yl)ethyl)piperidin-4-yl)-1H-benzo[d]imidazole oxalate]
22 |  |  | 155 to 157 | Cc1nc2ccccc2n1C1CCN(CCC2CCCc3sccc32)CC1.O=C(O)C(=O)O (centres unmarked) [Example 61, 2-methyl-1-(1-(2-(4,5,6,7-tetrahydrobenzo[b]thiophen-4-yl)ethyl)piperidin-4-yl)-1H-benzo[d]imidazole oxalate]
23 |  |  | 175 to 176 | COc1ccc(C2CCN(CCC3CCCc4sccc43)CC2)cc1.O=C(O)C(=O)O (centres unmarked) [Example 63, 4-(4-methoxyphenyl)-1-(2-(4,5,6,7-tetrahydrobenzo[b]thiophen-4-yl)ethyl)piperidine oxalate]
24 |  |  | 200 to 201 | COc1ccc2c(c1)CN(CCC1CCCc3sccc31)CC2.O=C(O)C(=O)O (centres unmarked) [Example 75, 7-methoxy-2-(2-(4,5,6,7-tetrahydrobenzo[b]thiophen-4-yl)ethyl)-1,2,3,4-tetrahydroisoquinoline oxalate]
25 |  |  | 182 to 184 | Clc1cc(Cl)c2c(c1)CN(CCC1CCCc3sccc31)CC2.O=C(O)C(=O)O (centres unmarked) [Example 77, 5,7-dichloro-2-(2-(4,5,6,7-tetrahydrobenzo[b]thiophen-4-yl)ethyl)-1,2,3,4-tetrahydroisoquinoline oxalate]
26 |  |  | 162 to 164 | O=C(O)C(=O)O.c1ccc2c(c1)ccn2C1CCN(CCC2CCCc3sccc32)CC1 (centres unmarked) [Example 79, 1-(1-(2-(4,5,6,7-tetrahydrobenzo[b]thiophen-4-yl)ethyl)piperidin-4-yl)-1H-indole oxalate]
27 |  |  | 205 to 206 | COc1ccc(N2CCC3(CCN(CCC4CCCc5sccc54)CC3)C2=O)cc1.O=C(O)C(=O)O (centres unmarked) [Example 85, 2-(4-Methoxyphenyl)-8-[2-(4,5,6,7-tetrahydrobenzo[b]thiophen-4-yl)-ethyl]-2,8diazaspiro[4.5]decan-1-one oxalate]
28 |  |  | 200 to 201 | O=C(O)C(=O)O.O=C1N(c2ccccc2)CCC12CCN(CCC1CCCc3sccc31)CC2 (centres unmarked) [Example 87, 2-phenyl-8-[2-(4,5,6,7-tetrahydrobenzo[b]thiophen-4-yl)-ethyl]-2,8-diazaspiro[4.5]decan-1-one oxalate]
29 |  |  | 167 to 168 | Brc1cccc2c1CCN(CCC1CCCc3sccc31)C2.O=C(O)C(=O)O (centres unmarked) [Example 91, 5-bromo-2-(2-(4,5,6,7-tetrahydrobenzo[b]thiophen-4-yl)ethyl)-1,2,3,4-tetrahydroisoquinoline oxalate]
30 |  |  | 180 to 181 | N#Cc1ccc2c(c1)CN(CCC1CCCc3sccc31)CC2.O=C(O)C(=O)O (centres unmarked) [Example 93, 2-(2-(4,5,6,7-tetrahydrobenzo[b]thiophen-4-yl)ethyl)-1,2,3,4-tetrahydroisoquinoline-7-carbonitrile oxalate]
